≈ marks a conversion by molar mass, not a printed value. Like-named read-outs stand apart in the source and are kept apart here.
What was measured:
[1] = system: Mycobacterium tuberculosis strain 331/88 (i.e., H37Rv); test: MIC micromethod in Šula's medium, drug-susceptible Mtb.; assay type: cell-based
[2] = system: Mycobacterium avium 330/88; test: MIC micromethod in Šula's medium, M. avium; assay type: cell-based
[3] = system: Mycobacterium kansasii 6509/96 (clinical isolate); test: MIC micromethod in Šula's medium, M. kansasii; assay type: cell-based
[4] = Cytotoxicity, CellTiter 96 (MTS) assay; details: human, Cytotoxicity for HepG2 cells, IC50, 24 h incubation, 1–1000 µM
HepG2 cells = test: Cytotoxicity, CellTiter 96 (MTS) assay; details: read-out: Cytotoxicity for HepG2 cells, IC50; 24 h incubation, 1–1000 µM
Mtb. H37Ra pMV261/pVV16 = test: microbe, parasite or virus in culture; assay type: cell-based, Mycobacterium tuberculosis; details: for MIC: Mycobacterium tuberculosis, H37RA, 672 h, read-out: MIC H37Ra pMV261/pVV16
Mtb. H37Ra pMV261-inhA = test: microbe, parasite or virus in culture; assay type: cell-based, Mycobacterium tuberculosis; details: for MIC: Mycobacterium tuberculosis, H37RA, 672 h, read-out: MIC H37Ra pMV261-inhA
[5] = system: Mtb. H37Ra pVV16-katGsmeg; test: microbe, parasite or virus in culture; assay type: cell-based; details: Mycobacterium tuberculosis, 672 h, read-out: MIC H37Ra pVV16-katGsmeg
[6] = system: Mycobacterium tuberculosis strain 331/88 (i.e., H37Rv); parameters: method as in PMID 34198149; details: cited from earlier work
[7] = system: Mycobacterium avium 330/88; parameters: method as in PMID 34198149; details: cited from earlier work
[8] = system: Mycobacterium kansasii 6509/96 (clinical isolate); parameters: method as in PMID 34198149; details: cited from earlier work
[9] = Solubility in the cytotoxicity concentration range; assay type: physicochemical; details: cytotoxicity assay medium, DMSO max 1% v/v
Description: The cells were seeded in a density 15,000 cells per well in a 96-well plate. The next day the cells were treated with each of the tested substances at a broad range of concentrations (1–1000 µM) in triplicates; the compounds were dissolved in DMSO (maximal incubation concentration of DMSO was 1% v/v). The controls representing 100% cell viability, 0% cell viability (the cells treated with 10% DMSO), no cell control and vehiculum controls were incubated in parallel, also as triplicates. After 24 h of incubation in a humidified atmosphere containing 5% CO2 at 37 °C, the reagent from the kit CellTiter 96 AQueous One Solution Cell Proliferation Assay (CellTiter 96; PROMEGA, Fitchburg, WI, USA) was added. After 2 h incubation at 37 °C, absorbance of samples was recorded at 490 nm (TECAN, Infinita M200, Grödig, Austria). A standard toxicological parameter IC50 was calculated by nonlinear regression from a semilogarithmic plot of incubation concentration versus percentage of absorbance relative to untreated controls using GraphPad Prism 8 software (GraphPad Software, Inc., La Jolla, CA, USA).
Cytotoxicity was quantified using the standard parameter IC50 (Figure 3).

[10] = Mycobacterium tuberculosis, H37RV, 336 h, 14 d incubation, esters, Table 1, read-out: MIC Mtb. 331/88 14 d
[11] = Mycobacterium tuberculosis, H37RV, 504 h, 21 d incubation, esters, Table 1, read-out: MIC Mtb. 331/88 21 d
[12] = Mycobacterium avium, 330/88, 336 h, 14 d incubation, Table 1, read-out: MIC M. avium 330/88 14 d
[13] = Mycobacterium avium, 330/88, 504 h, 21 d incubation, Table 1, read-out: MIC M. avium 330/88 21 d
[14] = Mycobacterium kansasii, 168 h, 7 d incubation, Table 1, read-out: MIC M. kansasii 6509/96 7 d
[15] = Mycobacterium kansasii, 336 h, 14 d incubation, Table 1, read-out: MIC M. kansasii 6509/96 14 d
[16] = Mycobacterium kansasii, 504 h, 21 d incubation, Table 1, read-out: MIC M. kansasii 6509/96 21 d
[17] = Mycobacterium kansasii, 504 h, text summary over 7, 14 and 21 d, read-out: MIC for M. kansasii 6509/96
[18] = Mycobacterium tuberculosis, H37RV, Table 4, read-out: MIC H37Rv
[19] = Mycobacterium avium, 330/88, 504 h, 14 and 21 d, read-out: MIC for M. avium

Compound	MIC [1, 10] [µM]	MIC [1, 11] [µM]	MIC [2, 12] [µM]	MIC [2, 13] [µM]	MIC [3, 14] [µM]	MIC [3, 15] [µM]	MIC [3, 16] [µM]	MIC [3, 17] [µM]	melting point [°C]	IC50 at 24 h [4] [µM]	IC50 (HepG2 cells) [µM]	MIC [1, 18] [µM]	MIC H37Ra pMV261/pVV16 (Mtb. H37Ra pMV261/pVV16)	MIC (Mtb. H37Ra pMV261/pVV16) [µM]	MIC H37Ra pMV261-inhA (Mtb. H37Ra pMV261-inhA) [µM]	MIC (Mtb. H37Ra pMV261-inhA) [µM]	MIC [5] [µM]	other results
C/C(=N\NC(=O)c1ccncc1)C(=O)Oc1cccc2ccccc12 [3i, Naphthalen-1-yl (E)-2-(2-isonicotinoylhydrazineylidene)propanoate]	0.25 (≈ 0.0833 µg/mL)	0.25 (≈ 0.0833 µg/mL)	125 (≈ 41.7 µg/mL)	250 (≈ 83.3 µg/mL)	0.25 (≈ 0.0833 µg/mL)	0.25 (≈ 0.0833 µg/mL)	0.25 (≈ 0.0833 µg/mL)	≤ 0.5	181.1 to 182.5	999	> 500							
C/C(=N\NC(=O)c1ccncc1)C(=O)Oc1ccc(Oc2ccccc2)cc1 [3e, 4-Phenoxyphenyl (E)-2-(2-isonicotinoylhydrazineylidene)propanoate]	≤ 0.125	0.5 (≈ 0.188 µg/mL)	250 (≈ 93.8 µg/mL)	500 (≈ 188 µg/mL)	2 (≈ 0.751 µg/mL)	4 (≈ 1.5 µg/mL)	4 (≈ 1.5 µg/mL)		152.4 to 155	551	> 500							
C/C(=N\NC(=O)c1ccncc1)C(=O)Oc1cccc2cccnc12 [3m, Quinolin-8-yl (E)-2-(2-isonicotinoylhydrazineylidene)propanoate]	0.25 (≈ 0.0836 µg/mL)	0.5 (≈ 0.167 µg/mL)	32 (≈ 10.7 µg/mL)	64 (≈ 21.4 µg/mL)	2 (≈ 0.669 µg/mL)	4 (≈ 1.34 µg/mL)	4 (≈ 1.34 µg/mL)		159.3 to 160.4	247		0.25 (≈ 0.0836 µg/mL)	0.25	0.25 (≈ 0.0836 µg/mL)	5	5 (≈ 1.67 µg/mL)	0.125 (≈ 0.0418 µg/mL)	MIC [2, 19]: 32 to 64 µM (≈ 10.7 to 21.4 µg/mL)
C/C(=N\NC(=O)c1ccncc1)C(=O)Oc1cc(C(C)C)ccc1C [3l, 2-Isopropyl-5-methyphenyl (E)-2-(2-isonicotinoylhydrazineylidene)propanoate]	0.25 (≈ 0.0848 µg/mL)	0.25 (≈ 0.0848 µg/mL)	125 (≈ 42.4 µg/mL)	250 (≈ 84.8 µg/mL)	0.25 (≈ 0.0848 µg/mL)	0.25 (≈ 0.0848 µg/mL)	0.25 (≈ 0.0848 µg/mL)	≤ 0.5		> 1000		0.25 (≈ 0.0848 µg/mL)	0.25	0.25 (≈ 0.0848 µg/mL)	5	5 (≈ 1.7 µg/mL)	0.05 to 0.125 (≈ 0.017 to 0.0424 µg/mL)	
C/C(=N\NC(=O)c1ccncc1)C(=O)O [compound 2, (E)-2-(2-isonicotinoylhydrazineylidene)propanoic acid]																		MIC Mtb. 331/88 14 d ([6]; 14 d incubation): 1 µM (≈ 0.207 µg/mL); MIC Mtb. 331/88 21 d ([6]; 21 d incubation): 1 µM (≈ 0.207 µg/mL); MIC M. avium 330/88 14 d ([7]; 14 d incubation): 500 µM (≈ 104 µg/mL); MIC M. avium 330/88 21 d ([7]; 21 d incubation): >1000 µM; MIC M. kansasii 6509/96 7 d ([8]; 7 d incubation): 8 µM (≈ 1.66 µg/mL); MIC M. kansasii 6509/96 14 d ([8]; 14 d incubation): 16 µM (≈ 3.32 µg/mL); MIC M. kansasii 6509/96 21 d ([8]; 21 d incubation): 16 µM (≈ 3.32 µg/mL)
5-Isopropyl-2-methylphenyl (E)-2-(2-isonicotinoylhydrazineylidene)propanoate [3k]											> 500							MIC ([1]; 14 d incubation, esters, Table 1, read-out: MIC Mtb. 331/88 14 d): 0.25 µM; MIC ([1]; 21 d incubation, esters, Table 1, read-out: MIC Mtb. 331/88 21 d): 0.25 µM; MIC ([2]; 14 d incubation, Table 1, read-out: MIC M. avium 330/88 14 d): 500 µM; MIC ([2]; 21 d incubation, Table 1, read-out: MIC M. avium 330/88 21 d): 1000 µM; MIC ([3]; 7 d incubation, Table 1, read-out: MIC M. kansasii 6509/96 7 d): 8 µM; MIC ([3]; 14 d incubation, Table 1, read-out: MIC M. kansasii 6509/96 14 d): 16 µM; MIC ([3]; 21 d incubation, Table 1, read-out: MIC M. kansasii 6509/96 21 d): 16 µM; fold lower activity than isomer 3l ([3]; M. kansasii 6509/96): 64 ×
C/C(=N\NC(=O)c1ccncc1)C(=O)Oc1cc(Cl)ccc1Oc1ccc(Cl)cc1Cl [3o, 5-Chloro-2-(2,4-dichlorophenoxy)phenyl (E)-2-(2-isonicotinoylhydrazineylidene)propanoate]	≤ 0.125	≤ 0.125	64 (≈ 30.6 µg/mL)	64 (≈ 30.6 µg/mL)	4 (≈ 1.91 µg/mL)	4 (≈ 1.91 µg/mL)	8 (≈ 3.83 µg/mL)		153 to 155	211		0.125 (≈ 0.0598 µg/mL)	0.325	0.325 (≈ 0.156 µg/mL)	6	6.25 (≈ 2.99 µg/mL)	0.125 (≈ 0.0598 µg/mL)	MIC [2, 19]: 32 to 64 µM (≈ 15.3 to 30.6 µg/mL); solubility in the concentration range of 1–1000 μM [9]: without any solubility problem
C/C(=N\NC(=O)c1ccncc1)C(=O)Oc1ccc2ccccc2c1 [3j, Naphthalen-2-yl (E)-2-(2-isonicotinoylhydrazineylidene)propanoate]	0.25 (≈ 0.0833 µg/mL)	0.25 (≈ 0.0833 µg/mL)	125 (≈ 41.7 µg/mL)	250 (≈ 83.3 µg/mL)	0.25 (≈ 0.0833 µg/mL)	0.25 (≈ 0.0833 µg/mL)	0.5 (≈ 0.167 µg/mL)	≤ 0.5	116 to 117.2	682	> 500							

From paper PMC8703412 (Pharmaceuticals, 2021)
